Measurements: ChEMBL document CHEMBL4680293, “Tubulin inhibitory activity of a novel colchicine-binding compounds based on a dinaphthospiropyranran scaffold” (Bioorg Med Chem, 2021)
pIC50: −log10 of the molar value. Calls of active or inactive are those of the source. No cut-off for these calls is given here.

Experiments:
NCI-H23 = test: Anti-cancer activity against human NCI-H23 cells assessed as cell growth inhibition measured after 48 hrs by SRB method; assay type: functional, cell-based
SK-OV-3 = test: Anti-cancer activity against human SK-OV-3 cells assessed as cell growth inhibition measured after 48 hrs by SRB method; assay type: functional, cell-based
U-251 = test: Anti-cancer activity against human U251 cells assessed as cell growth inhibition measured after 48 hrs by SRB method; assay type: functional, cell-based
[1] = Anti-cancer activity against human non-small lung cancer cells assessed as cell growth inhibition measured after 48 hrs by SRB method; assay type: functional; conditions: Non-small cell lung cancer cell line
NCI/ADR-RES = test: Anti-cancer activity against human NCI/ADR-RES cells assessed as cell growth inhibition measured after 48 hrs by SRB method; assay type: functional, cell-based
CCRF-CEM = test: Anti-cancer activity against human CCRF-CEM cells assessed as cell growth inhibition measured after 48 hrs by SRB assay; assay type: functional, cell-based
EKVX = test: Anti-cancer activity against human EKVX cells assessed as cell growth inhibition measured after 48 hrs by SRB method; assay type: functional, cell-based
UO-31 = test: Anti-cancer activity against human UO-31 cells assessed as cell growth inhibition measured after 48 hrs by SRB method; assay type: functional, cell-based
Tubulin (Homo sapiens) = Tubulin (Homo sapiens) (UniProt P68371+Q9H4B7+P0DPH7+P68366+Q13509+Q71U36+P04350+Q3ZCM7+P07437+P68363+Q9BQE3+Q6PEY2+Q13885+Q9BVA1+Q9BUF5); test: Inhibition of tubulin (unknown origin) assessed as inhibition of tubulin polymerization at 10 uM measured for 50 mins by fluorescence based analysis; assay type: protein-complex assay
A549 = test: Anti-cancer activity against human A549/ATCC cells assessed as cell growth inhibition measured after 48 hrs by SRB method; assay type: functional, cell-based
K562 = test: Anti-cancer activity against human K562 cells assessed as cell growth inhibition measured after 48 hrs by SRB method; assay type: functional, cell-based
SNB-75 = test: Anti-cancer activity against human SNB-75 cells assessed as cell growth inhibition measured after 48 hrs by SRB method; assay type: functional, cell-based
MDA-MB-435 = test: Anti-cancer activity against human MDA-MB-435 cells assessed as cell growth inhibition measured after 48 hrs by SRB method; assay type: functional, cell-based
HCC 2998 = test: Anti-cancer activity against human HCC2998 cells assessed as cell growth inhibition measured after 48 hrs by SRB method; assay type: functional, cell-based
Hs-578T = test: Anti-cancer activity against human HS-578T cells assessed as cell growth inhibition measured after 48 hrs by SRB method; assay type: functional, cell-based
SW-620 = test: Anti-cancer activity against human SW-620 cells assessed as cell growth inhibition measured after 48 hrs by SRB method; assay type: functional, cell-based
[2] = Anti-cancer activity against human central nervous system cells assessed as cell growth inhibition measured after 48 hrs by SRB method; assay type: functional; conditions: CNS cell
Malme-3M = test: Anti-cancer activity against human Malme-3M cells assessed as cell growth inhibition measured after 48 hrs by SRB method; assay type: functional, cell-based
NCI-H460 = test: Anti-cancer activity against human NCI-H460 cells assessed as cell growth inhibition measured after 48 hrs by SRB method; assay type: functional, cell-based
PC-3 = test: Anti-cancer activity against human PC-3 cells assessed as cell growth inhibition measured after 48 hrs by SRB method; assay type: functional, cell-based
786-0 = test: Anti-cancer activity against human 786-0 cells assessed as cell growth inhibition measured after 48 hrs by SRB method; assay type: functional, cell-based
CAKI-1 = test: Anti-cancer activity against human CAKI-1 cells assessed as cell growth inhibition measured after 48 hrs by SRB method; assay type: functional, cell-based
RPMI-8226 = test: Anti-cancer activity against human RPMI-8226 cells assessed as cell growth inhibition measured after 48 hrs by SRB method; assay type: functional, cell-based
OVCAR-3 = test: Anti-cancer activity against human OVCAR-3 cells assessed as cell growth inhibition measured after 48 hrs by SRB method; assay type: functional, cell-based
LOX IMVI = test: Anti-cancer activity against human LOX IMVI cells assessed as cell growth inhibition measured after 48 hrs by SRB method; assay type: functional, cell-based
SN12C = test: Anti-cancer activity against human SN12C cells assessed as cell growth inhibition measured after 48 hrs by SRB method; assay type: functional, cell-based
[3] = time 48 hrs, read-out: LC50 (the source's name)

## C1=C2CNCC3=Cc4c(ccc5ccccc45)OC23Oc2ccc3ccccc3c21
NCI-H23; NCI-H23, 48 h
  pIC50: 4.68
NCI-H23; NCI-H23, time 48 hrs
  GI50: 6.92 µM
  TGI: 31.6 µM
SK-OV-3; SK-OV-3, 48 h
  pIC50: 5.09
SK-OV-3; SK-OV-3, time 48 hrs
  GI50: 3.39 µM
  TGI: 12.9 µM
SK-OV-3; SK-OV-3, time 48 hrs, read-out: LC50 (the source's name)
  CC50: 4.26 µM
U-251; U-251, 48 h
  pIC50: 5.29
U-251; U-251, time 48 hrs
  GI50: 3.24 µM
  LC50 (concentration killing 50% of cells): 4.21 µM
  TGI: 14.8 µM
[1]
  GI50: 5.13 µM
NCI/ADR-RES; 48 h
  pIC50: 5.42
NCI/ADR-RES; time 48 hrs
  GI50: 2.09 µM
  TGI: 6.03 µM
NCI/ADR-RES; [3]
  CC50: 4 µM
CCRF-CEM; 48 h
  pIC50: 5.27
CCRF-CEM; time 48 hrs
  GI50: 3.63 µM
  TGI: 100 µM
CCRF-CEM; [3]
  CC50: 4 µM
EKVX; 48 h
  pIC50: 4.70
EKVX; time 48 hrs
  GI50: 5.75 µM
  TGI: 33.9 µM
UO-31; UO-31, 48 h
  pIC50: 4.76
UO-31; UO-31, time 48 hrs
  GI50: 3.55 µM
  TGI: 21.4 µM
UO-31; UO-31, time 48 hrs, read-out: LC50 (the source's name)
  CC50: 4.16 µM
Tubulin (Homo sapiens)
  inhibition: Active
A549; A549, 48 h
  pIC50: 5.16
A549; A549, time 48 hrs
  GI50: 4.47 µM
  TGI: 20.4 µM
A549; A549, time 48 hrs, read-out: LC50 (the source's name)
  CC50: 4.14 µM
K562; K562, 48 h
  pIC50: 5.45
K562; K562, time 48 hrs
  GI50: 2.95 µM
  TGI: 21.4 µM
K562; K562, time 48 hrs, read-out: LC50 (the source's name)
  CC50: 4 µM
SNB-75; SNB-75, 48 h
  pIC50: 4.95
SNB-75; SNB-75, time 48 hrs
  GI50: 2.34 µM
  LC50: 4.18 µM
  TGI: 11.5 µM
MDA-MB-435; MDA-MB-435, 48 h
  pIC50: 5.62
MDA-MB-435; MDA-MB-435, time 48 hrs
  GI50: 1.41 µM
  TGI: 3.24 µM
HCC 2998; HCC 2998, 48 h
  pIC50: 5.07
HCC 2998; HCC 2998, time 48 hrs
  GI50: 3.98 µM
  LC50 (lethal concentration, 50% cell kill): 4.11 µM
  TGI: 19.5 µM
Hs-578T; 48 h
  pIC50: 4.00
Hs-578T; time 48 hrs
  GI50: 2.24 µM
  TGI: 10.5 µM
Hs-578T; [3]
  CC50: 4 µM
SW-620; SW-620, 48 h
  pIC50: 5.51
SW-620; SW-620, time 48 hrs
  GI50: 2.51 µM
  TGI: 10.5 µM
SW-620; SW-620, time 48 hrs, read-out: LC50 (the source's name)
  CC50: 4.28 µM
[2]
  GI50: 3.8 µM
Malme-3M; 48 h
  pIC50: 4.44
Malme-3M; time 48 hrs
  GI50: 12.6 µM
  LC50 (50% lethal concentration): 4 µM
  TGI: 38 µM
NCI-H460; NCI-H460, 48 h
  pIC50: 5.43
NCI-H460; NCI-H460, time 48 hrs
  GI50: 3.24 µM
  TGI: 13.2 µM
NCI-H460; NCI-H460, time 48 hrs, read-out: LC50 (the source's name)
  CC50: 4.14 µM
PC-3; PC-3, 48 h
  pIC50: 5.00
PC-3; PC-3, time 48 hrs
  GI50: 3.47 µM
  LC50: 4.16 µM
  TGI: 18.2 µM
786-0; 786-0, 48 h
  pIC50: 5.02
786-0; 786-0, time 48 hrs
  GI50: 5.13 µM
  TGI: 31.6 µM
CAKI-1; CAKI-1, 48 h
  pIC50: 4.92
CAKI-1; CAKI-1, time 48 hrs
  GI50: 3.31 µM
  TGI: 20.9 µM
CAKI-1; CAKI-1, time 48 hrs, read-out: LC50 (the source's name)
  CC50: 4.07 µM
RPMI-8226; RPMI-8226, 48 h
  pIC50: 4.86
RPMI-8226; RPMI-8226, time 48 hrs
  GI50: 5.5 µM
  TGI: 64.6 µM
RPMI-8226; RPMI-8226, time 48 hrs, read-out: LC50 (the source's name)
  CC50: 4 µM
OVCAR-3; OVCAR-3, 48 h
  pIC50: 5.39
OVCAR-3; OVCAR-3, time 48 hrs
  GI50: 2.34 µM
  LC50: 4.71 µM
  TGI: 5.5 µM
LOX IMVI; 48 h
  pIC50: 5.47
LOX IMVI; time 48 hrs
  GI50: 2.45 µM
  LC50 (50% lethal concentration): 4 µM
  TGI: 7.41 µM
SN12C; 48 h
  pIC50: 5.12
SN12C; time 48 hrs
  GI50: 4.27 µM
  TGI: 20 µM
SN12C; [3]
  CC50: 4.08 µM
